Values of other authors in US6368613B1, “Use of fluorocarbons for diagnosis and treatment of articular disorders” (Alliance Pharmaceutical Corp., priority 1996, dated 2002).
Marks after values point to notes of the source that are not given here.

Conditions: in octanol/pH 7.4 isotonic phosphate buffer at 37° C. (marked a)

Row | Compound | Log Po/w | Po/w
1 | CN(C)CCCN1c2ccccc2CCc2ccc(Cl)cc21 [clomipramine] | 3.58^a | 3.80 × 10^3
2 | CCc1cc2c(s1)N(C)C(=O)CN=C2c1ccccc1Cl [clotiazepam] | 3.49^a | 3.06 × 10^3
3 | CCCCCC(=O)OCCOCn1cnc2c(=O)[nH]c(N)nc21 [hexanoyl acyclovir] | – | 8.58
4 | CC(C)=CCN1CCC2(C)c3cc(O)ccc3CC1C2C (centres unmarked) [pentazocin] | 2.18^a | 150
5 | CC(CN1c2ccccc2Sc2ccccc21)N(C)C (centres unmarked) [promethazine] | 3.10^a | 1.27 × 10^3
6 | OC(CCN1CCCCC1)(c1ccccc1)C1CCCCC1 (centres unmarked) [trihexyphenidyl] | 3.17^a | 1.47 × 10^3
7 | CCCCC(=O)OCCOCn1cnc2c(=O)[nH]c(N)nc21 [valeryl acyclovir] | – | 2.01

Same assay, conditions: octanol/water partition coefficient

Row | Compound | Log Po/w | Po/w
8 | c1ccc2cc3ccccc3cc2c1 [C-anthracene, anthracene] | 4.5 | 3.16 × 10^4
9 | CCCCCCCCCCCC(=O)N1CCCCCC1 [C-hexamethylenelauramide, hexamethylenelauramide] | 7.3 | 2.00 × 10^7
10 | CCCCC(CC)COC(=O)c1ccc(N(C)C)cc1 (centres unmarked) [C-padimate-o, padimate-o] | 6.6 | 3.98 × 10^6
11 | C[C@]12CC[C@H]3[C@@H](CCC4=CC(=O)CC[C@@]43C)[C@@H]1CC[C@@H]2O [C-testosterone, testosterone] | 3.3 | 2.00 × 10^3
12 | CC/C(=C(/CC)c1ccc(O)cc1)c1ccc(O)cc1 [H -diethylstilbesterol, diethylstilbesterol] | 5.1 | 1.26 × 10^5
13 | CC(=O)[C@@]1(O)CC[C@H]2[C@@H]3C[C@H](C)C4=CC(=O)C=C[C@]4(C)[C@@]3(F)[C@@H](O)C[C@@]21C [H -fluorornetholone, fluorornetholone] | 2.1 | 1.26 × 10^2
14 | Clc1cccc(Cl)c1N=C1NCCN1 [H-clonidine, clonidine] | 1.4 | 25.1
15 | COc1ccc(C(=O)CC(=O)c2ccc(C(C)(C)C)cc2)cc1 [H-parsol 1789, parsol 1789] | 6.7 | 5.0 × 10^6
16 | CCCCN1CCCCC1C(=O)Nc1c(C)cccc1C (centres unmarked) [bupivacaine] | 1.45 | 28.2
17 | FC(F)(F)C(Cl)Br (centres unmarked) [halothane] | 2.30 | 2.00 × 10^2
18 | O=C1CN=C(c2ccccc2)c2cc([N+](=O)[O-])ccc2N1 [nitrazepam] | 2.21 | 162
19 | CCCCNc1ccc(C(=O)OCCN(C)C)cc1 [tetracaine] | 1.90 | 79.4

Same assay, conditions: pH 7.4

Row | Compound | Log Po/w
20 | CCCCCC(=O)OCCOCn1cnc2c(=O)[nH]c(N)nc21 [hexanoyl acyclovir] | 0.93^a
21 | CCCCC(=O)OCCOCn1cnc2c(=O)[nH]c(N)nc21 [valeryl acyclovir] | 0.30^a
